Results taken from US8012949B2, “Bisphosphonate compounds and methods with enhanced potency for multiple targets including FPPS, GGPPS, and DPPS” (The Board of Trustees of the University of Illinois, priority 2004, dated 2011).
Where two headings read alike, the source gives them in different places.

Experiments:
[1] = target: T1, human DPPS (Homo sapiens, UniProt Q5T2R2); experiment: human DPPS enzyme inhibition; type: biochemical; conditions: Table 1, experimental
T1 construct: made in house
T1 sequence (Q5T2R2 1-415): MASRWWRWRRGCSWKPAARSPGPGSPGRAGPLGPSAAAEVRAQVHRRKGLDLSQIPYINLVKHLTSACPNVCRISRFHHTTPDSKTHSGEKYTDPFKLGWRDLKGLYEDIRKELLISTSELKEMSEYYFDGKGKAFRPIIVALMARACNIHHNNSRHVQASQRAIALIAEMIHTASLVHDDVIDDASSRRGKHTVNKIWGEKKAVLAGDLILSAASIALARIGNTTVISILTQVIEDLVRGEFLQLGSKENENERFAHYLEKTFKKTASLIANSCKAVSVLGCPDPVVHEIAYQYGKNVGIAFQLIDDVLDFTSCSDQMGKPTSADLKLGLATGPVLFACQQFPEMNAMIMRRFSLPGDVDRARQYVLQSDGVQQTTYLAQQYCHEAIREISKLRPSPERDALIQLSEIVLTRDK
T1 sequence (Q86YH6 1-399 partner): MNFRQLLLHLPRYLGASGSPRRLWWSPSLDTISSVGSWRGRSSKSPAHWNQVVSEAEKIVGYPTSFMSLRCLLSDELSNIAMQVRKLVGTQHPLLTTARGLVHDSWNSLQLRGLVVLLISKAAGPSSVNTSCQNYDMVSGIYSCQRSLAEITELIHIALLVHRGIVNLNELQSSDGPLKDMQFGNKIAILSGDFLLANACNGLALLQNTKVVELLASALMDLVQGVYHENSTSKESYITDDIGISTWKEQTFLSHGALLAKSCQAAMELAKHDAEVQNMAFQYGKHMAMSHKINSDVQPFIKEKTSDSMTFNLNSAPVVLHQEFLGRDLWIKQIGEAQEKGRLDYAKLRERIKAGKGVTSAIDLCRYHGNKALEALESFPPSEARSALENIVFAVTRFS
Description: To test our polypharmaceutical hypothesis, we expressed three enzymes: human FPPS, GGPPS and DPPS, and tested each for their inhibition by a series of bisphosphonates.

[2] = tested on: SF-268 (central nervous system glioblastoma); experiment: SF-268 cell growth inhibition (MTT); type: cell-based, human; conditions: Table 1, experimental
Description: (§1) Cell Growth Inhibition Assays. […] A broth microdilution method was used to determine IC50 values for growth inhibition by each bisphosphonate. […] NBPs were typically initially dissolved in H2O (0.01 M) while NNBPs were typically dissolved in DMSO (0.01 M).
(§2) GraphPad PRISM® version 4.0 software for windows (GraphPad Software Inc., San Diego, Calif., www.graphpad.com) was used to fit the data to a rectangular hyperbolic function: I=(ImaxC)/(IC50+C); […]

[3] = tested on: MCF-7 (breast adenocarcinoma); experiment: MCF-7 cell growth inhibition (MTT), incl. FOH/GGOH rescue; type: cell-based, human; conditions: for MCF7 Cell pIC50: Table 3, determined in this work; for IC50: Homo sapiens
Description: as §1
GraphPad PRISM® version 4.0 software for windows (GraphPad Software Inc., San Diego, Calif., www.graphpad.com) was used to fit the data to a rectangular hyperbolic function: I=(ImaxC)/(IC50+C);
For the “rescue” experiments, stock solutions of FOH or GGOH were prepared (in ethanol) and the requisite amounts added to the incubation media to produce a fixed 20 μM concentration.

[4] = tested on: NCI-H460 (lung large cell); experiment: NCI-H460 cell growth inhibition (MTT); type: cell-based, human; conditions: Table 1, experimental
Description: as §1, §2

[5] = tested on: Vγ2Vδ2 T cells; experiment: γδ T cell activation (TNF-α release and proliferation); type: cell-based, human; conditions: Table 2, -log10(value, M); for EC50: Homo sapiens, T-cell, read-out: γδ T Cell Avg pED50 (converted)
Protocol: γδ T Cell Assays. Vγ2Vδ2 T cell TNF-α release and proliferation were performed basically as described previously^1. Briefly, to measure bioactivity for Vγ2Vδ2 T cells, the CD4^+ JN.24, CD4^+ HF.2, CD8αα^+ 12G12, or the CD4^−8^− HD.108 Vγ2Vδ2 T cell clones were stimulated with phosphoantigens in the presence of CP.EBV (an EBV transformed B cell line) for CD4^+ clones or Va-2 (a transformed fibroblast) for CD8αα^+ and CD4^−8^− clones. CP.EBV and Va-2 were fixed with 0.05% glutaraldehyde (EM grade, Sigma, Mo.) for use as APCs. […] Curve fitting minima for each experiment (e.g. TNF-α release from JN.24 cells) were determined using the Global Fitting technique, as implemented in Prism 4.0. Curve fitting maxima were optimized for each individual compound without the use of any constraints.

[6] = MCF7, Table 1, experimental, read-out: MCF-7 pIC50 (converted)
[7] = MCF7, Table 2, -log10(value, M), read-out: MCF-7 Cell pIC50 (converted)

Row | SMILES | MCF7 Cell pIC50 [3] | MCF-7 Cell pIC50 (M) ([3]; Table 2, -log10(value, M)) | γδ T Cell Avg pED50 (M) [5] | further results
1 | NCCCC(O)(P(=O)(O)O)P(=O)(O)O [BPH-1, reference compound] | 3.31 |  |  | DPPS pKi [1]: 6.3; SF-268 pIC50 (M) [2]: 3.5 M; MCF-7 pIC50 (M) ([3]; Table 1, experimental): 3.3 M; NCI-H460 pIC50 (M) [4]: 3.5 M
2 | CCCCCCCC[S+](C)CC(P(=O)([O-])O)P(=O)(O)O (stereo not drawn) [BPH-683] |  |  |  | Ki ([1]; read-out: DPPS_pKi (converted)): 0.0631 µM; IC50 ([2]; Homo sapiens, SF-268, read-out: SF-268 pIC50 (converted)): 12.6 µM; IC50 [3, 6]: 20 µM; IC50 [3, 7]: 6.76 µM; IC50 ([4]; Homo sapiens, NCI-H460, read-out: NCI-H460 pIC50 (converted)): 15.8 µM; EC50 [5]: 107 µM
3 | CCC[S+](C)CC(P(=O)([O-])O)P(=O)(O)O (stereo not drawn) [BPH-685] |  | 4.02 M | 3.81 M | DPPS pKi [1]: 6.7; SF-268 pIC50 (M) [2]: 3.7 M; MCF-7 pIC50 (M) ([3]; Table 1, experimental): 3.6 M; NCI-H460 pIC50 (M) [4]: 3.9 M
4 | CC(C)(C)C(=O)OCOP(=O)(O)C(C[n+]1cccc(F)c1)P(=O)([O-])O (stereo not drawn) [BPH-669] |  | 4.75 M | 4.49 M | 
5 | O=P([O-])(O)C(C[n+]1cccc(Cc2ccccc2)c1)P(=O)(O)O (stereo not drawn) [BPH-480] |  | 3.42 M | 3.33 M | 
6 | CCCCCCOc1ccc[n+](CC(P(=O)([O-])O)P(=O)(O)O)c1 (stereo not drawn) [BPH-723] |  | 5.76 M | 4.44 M | 
7 | CN(CCCc1ccccc1)CCC(O)(P(=O)(O)O)P(=O)(O)O [BPH-209, reference compound] | 4.01 |  |  | 
8 | O=P(O)(O)C(O)(Cc1c[nH]cn1)P(=O)(O)O [BPH-18, reference compound] | 5.41 |  |  | 
9 | O=P([O-])(O)C(C[n+]1cccc(F)c1)P(=O)(O)O (stereo not drawn) [BPH-477] |  | 4.77 M | 3.80 M | 
10 | CC(C)(C)C(=O)OCOP(=O)(O)C(O)(C[n+]1cccc(F)c1)P(=O)([O-])O (stereo not drawn) [BPH-670] |  | 4.64 M | 4.16 M | 
11 | O=P([O-])(O)C(C[n+]1ccc(Cc2ccccc2)cc1)P(=O)(O)O (stereo not drawn) [BPH-481] |  | 3.90 M | 3.45 M | 
12 | O=P(O)(O)C(O)(Cc1cnc2ccccn12)P(=O)(O)O [BPH-261] |  |  |  | DPPS pKi [1]: 6.8; SF-268 pIC50 (M) [2]: 4.9 M; MCF-7 pIC50 (M) ([3]; Table 1, experimental): 4.8 M; NCI-H460 pIC50 (M) [4]: 4.8 M
13 | O=P(O)(O)C(O)(Cn1ccnc1)P(=O)(O)O [BPH-91, reference compound] | 4.81 |  |  | DPPS pKi [1]: 7.4; SF-268 pIC50 (M) [2]: 4.8 M; MCF-7 pIC50 (M) ([3]; Table 1, experimental): 4.7 M; NCI-H460 pIC50 (M) [4]: 4.8 M
14 | O=P(O)(O)C(Cc1nccs1)P(=O)(O)O [BPH-58, reference compound] | 3.48 |  |  | 
15 | CCCCCN(C)CCC(O)(P(=O)(O)O)P(=O)(O)O [BPH-24, reference compound] |  |  |  | DPPS pKi [1]: 7.3; SF-268 pIC50 (M) [2]: 3.8 M; MCF-7 pIC50 (M) ([3]; Table 1, experimental): 3.7 M; NCI-H460 pIC50 (M) [4]: 3.7 M
16 | CCCCCCCCCCCC[S+](C)CC(P(=O)([O-])O)P(=O)(O)O (stereo not drawn) [BPH-688] |  |  |  | IC50 [3, 6]: 6.31 µM; IC50 [3, 7]: 0.501 µM; EC50 [5]: 5.62 µM
17 | CCCCCCCCCCCCc1ccc[n+](CC(P(=O)([O-])O)P(=O)(O)O)c1 (stereo not drawn) [BPH-677] |  | 4.34 M | 4.88 M | 
18 | CCCCc1ccc[n+](CC(P(=O)([O-])O)P(=O)(O)O)c1 (stereo not drawn) [BPH-476] |  | 4.58 M | 4.00 M | 
19 | CN(CCCCc1ccccc1)CCC(O)(P(=O)(O)O)P(=O)(O)O [BPH-210, reference compound] | 4.08 |  |  | 
20 | NCCC(O)(P(=O)(O)O)P(=O)(O)O [pamidronate, reference compound] |  |  |  | IC50 ([3]; MCF7, FIG. 2A, read-out: IC50, MCF-7 tumor cell growth inhibition): ~300 µM

Row | SMILES | MCF7 Cell pIC50 [3] | MCF-7 Cell pIC50 (M) ([3]; Table 2, -log10(value, M)) | γδ T Cell Avg pED50 (M) [5] | further results
21 | O=P(O)(O)C(N1CCCCCC1)P(=O)(O)O [BPH-57, reference compound] | 3.60 |  |  | 
22 | CC(C)(C)C(=O)OCOP(=O)(O)C(C[n+]1ccccc1)P(=O)([O-])O (stereo not drawn) [BPH-656] |  | 4.88 M | 4.29 M | 
23 | O=P(O)(O)C(O)(C[n+]1cccc(F)c1)P(=O)(O)O [BPH-461, 3-fluoro-1-(2-hydroxy-2,2-bisphosphonoethyl)-pyridinium] |  | 4.34 M | 4.16 M | 
24 | CCCCCCCCCC[S+](C)CC(P(=O)([O-])O)P(=O)(O)O (stereo not drawn) [BPH-687] |  | 6.20 M | 5.09 M | 
25 | CCCCOc1ccc[n+](CC(P(=O)([O-])O)P(=O)(O)O)c1 (stereo not drawn) [BPH-721] |  | 4.70 M | 4.10 M | 
26 | O=P([O-])(O)C(C[n+]1ccccc1)P(=O)(O)O (stereo not drawn) [BPH-470] |  | 4.14 M | 4.12 M | 
27 | O=P(O)(O)C(O)(Cc1cccnc1)P(=O)(O)O [BPH-2] |  | 3.13 M | 4.29 M | DPPS pKi [1]: 7.3; SF-268 pIC50 (M) [2]: 3.9 M; MCF-7 pIC50 (M) ([3]; Table 1, experimental): 3.8 M; NCI-H460 pIC50 (M) [4]: 3.7 M
28 | CCCCCCCCOc1ccc[n+](CC(P(=O)([O-])O)P(=O)(O)O)c1 (stereo not drawn) [BPH-714] |  | 6.82 M | 5.29 M | 
29 | C[S+](CCCc1ccccc1)CC(P(=O)([O-])O)P(=O)(O)O (stereo not drawn) [BPH-686] |  | 4.24 M | 3.81 M | 
30 | CCc1ccc[n+](CC(P(=O)([O-])O)P(=O)(O)O)c1 (stereo not drawn) [BPH-475] |  | 4.37 M | 3.94 M | 
31 | CCCN(C)CC(P(=O)(O)O)P(=O)(O)O [BPH-693] |  | 5.32 M | 5.28 M | 
32 | O=P(O)(O)C(N1CCCCC1)P(=O)(O)O [BPH-72, reference compound] | 3.34 |  |  | 
33 | O=P([O-])(O)C(C[S+]1CCCC1)P(=O)(O)O (stereo not drawn) [BPH-682] |  | 4.02 M | 3.84 M | 
34 | O=P(O)(O)C(NC1CCCCCC1)P(=O)(O)O [BPH-31, reference compound] | 4.30 |  |  | 
35 | CCCCCCCCCCCCCCCC[S+](C)CC(P(=O)([O-])O)P(=O)(O)O (stereo not drawn) [BPH-695] |  | 5.95 M | 5.68 M | 
36 | NCCC(O)(P(=O)(O)O)P(=O)(O)O [BPH-5, reference compound] | 3.85 |  |  | DPPS pKi [1]: 6.3; SF-268 pIC50 (M) [2]: 3.5 M; MCF-7 pIC50 (M) ([3]; Table 1, experimental): 3.9 M; NCI-H460 pIC50 (M) [4]: 4.0 M
37 | O=P(O)(O)C(Cc1cccnc1)P(=O)(O)O [BPH-290] |  | 3.47 M | 4.21 M | 
38 | CN(CCOc1ccccc1)CCC(O)(P(=O)(O)O)P(=O)(O)O [BPH-219, reference compound] | 4.93 |  |  | 
39 | CCCCCCCCCCCCCCCCCC[S+](C)CC(P(=O)([O-])O)P(=O)(O)O (stereo not drawn) [BPH-696] |  | 5.85 M | 4.63 M | 
40 | CN(CCc1ccccc1)CCC(O)(P(=O)(O)O)P(=O)(O)O [BPH-208, reference compound] | 4.38 |  |  | 
